Here are results for ten molecules from patent publication US12318399B2 (priority 2022, dated 2025).

This series concerns endometrial cancer organoids. Kind of series: Patient-derived endometrial cancer organoid cell viability (CellTiter-Glo). The note with it: for Flavonoids screening on endometrial cancer cell organoids, Average: viability normalized to vehicle = 100; for cell viability: FIG. 17B; for efficacy in combination with FSHE: combined with IC50 FSHE, FIG. 18; for cell viability compared to the IC50 value: 75 μM in combination with BSHE at an IC50, FIG. 17A. The class given is cell-based, human. The method, then: Development of patient derived organoids: The patient derived organoids were created as follows: the patient's tissue sample was collected after surgery and bathed in Hank's Balanced Salt Solution (HBSS) (Hyclone, SH30031.02) with 1% Pencillin/Streptomycin (P/S) (Life Technologies, 15070-063) on ice. Then the sample was washed three times with Dulbecco's phosphate-buffered saline (DPBS) and 1% P/S on a shaker (70 rpm) for 15 minutes each. The tissue was then transferred into a presterilized cell-culture hood to mince it finely with a sterile blade. All minced parts were then digested in an enzyme named Accumax (Innovative Cell Technologies Inc., AM105-500) for 2.5 hours at room temperature. After 2.5-hour incubation, the whole digested tissue mince was transferred in another enzyme, TrypLE express, (Gibco, 12604-021) for another 45 minutes in a 37° C. water bath. During this time the solution was continuously agitated in every 5 minutes interval. After 45 minutes of incubation, the solutions were passed through 70 μm filter on a 50 mL falcon tube. The filter was removed, and the flowthrough with the cells was collected in 5% FBS AD+++ medium (comprising 1% TS, 2% B27, 1% N2, 25% WRN, hegf 50 ng/ml, hfgf 10-100 ng/ml, Nicotinamide 1 mM, N-acetyl cysteine 1.25 mM, Primocin 0.2%, Estrogen 2 nm, A8301 0.5 μM, and Y27632). This cell suspension was centrifuged at 1000 rpm for 5 minutes at room temperature to get the cell pellet for counting. Upon checking under hemocytometer cell number was calculated and processed for organoid culture. After checking under a microscope if we found RBC contamination in the final cell suspension, then we used Red Blood Cell Lysis Buffer (Roche Diagnostics, 11814389001) to get rid of the excess RBC. Human patient cells from endometrial cancer were grown and maintained in a humidified chamber at 37° C. with 5% CO2.
To culture patient-derived organoids, 2-3×10^3 cells were plated in a prewarmed (37° C.) 96-well plate in […] of Matrigel (5% FBS AD+++ medium) per well. Individual patient cell organoid was cultured separately in different plates. Individual patient cells were handled separately to reduce the chance of cross-contamination. After mixing cells with Matrigel, […] droplets were placed in wells and put in a 37° C. incubator with 5% CO2 for 30 minutes. Upon solidification of the Matrigel droplet with cells inside, the plate was placed inside a sterile hood and immersed the Matrigel droplet in 200 μL of organoid growth media. Cells were allowed to grow into mature organoids for 14 days. […] All treatments were done in triplicate, including vehicle-only controls (Dimethyl sulfoxide in culture medium at the highest concentration used for drug treatments).
Note: IC50 is the 50% inhibitory concentration which is conventionally used to determine drug potency with cell-based cytotoxicity tests. Similarly, all of the antioxidants were tested under the same protocol.
To assess the cell viability in organoids after treatments, CellTiter-Glo® Luminescent Assay (Promega #G7572) was used. In brief, on day 14 of organoid culture, the matrigel droplet in each well with organoid inside was immersed in 100 μL of fresh growth media and 100 μL of CellTiter-Glo® reagent following the manufacturer's guideline. Blank wells containing only media and CellTiter-Glo® reagent (no cells) were also included in each plate. Then the plates were put on a shaker at 110 RPM at room temperature for […] minutes to induce cell lysis, followed by 25 minutes at room temperature to stabilize the luminescent signal. Each step after adding the CellTiter-Glo® reagent was performed in the dark. Luminescence was measured on a FLUOstar OPTIMA plate reader (BMG Lab technologies, Offenburg, Germany). Analysis was performed by normalizing treatment values to the vehicle control and plotting them as a percentage of the vehicle control.

As for `O=c1c(O)c(-c2ccccc2)oc2cc(O)cc(O)c12` [Galangin], the “Flavonoids screening on endometrial cancer cell organoids, Average” value (shortened to “Flavonoids screening”) is, setting by setting: (10 μM, monotherapy) 98.74; (20 μM, monotherapy) 98.58; (30 μM, monotherapy) 96.96; (40 μM, monotherapy) 69.20; (50 μM, monotherapy) 49.62; (60 μM, monotherapy) 33.55. Besides, the “Flavonoids screening” value (80 μM, monotherapy) is on record as 25.66 and the “Flavonoids screening” value (100 μM, monotherapy) is 29.73.
With `N.N.O=C([O-])C1(C(=O)[O-])CCC1.[Pt+2]` [carboplatin, reference compound], the “relative improvement on increasing the chemotherapeutic drug by 5×” value (carboplatin alone) is “about 18%”. Also, the viability result runs as follows: (carboplatin alone, 50 μg/mL (lowest dose)) “about 50%”; (carboplatin alone, highest dose) “about 32%”.
Regarding `O=c1cc(-c2ccccc2)oc2cc(O)cc(O)c12` [chrysin], the “efficacy in combination with FSHE” value is 2nd most effective combination. Besides, the cell viability (10 μM combined with the IC50 of the BSHE) amounted to 3.04%. Besides, the growth (10 μM, monotherapy, FIG. 16) was 178.99%. Also, for the setting “10 μM, with IC50 of BSHE”, the “change in viability, combination vs monotherapy” value is listed as around 175%. Moreover, the cell viability (12.5 μM combined with the IC50 of the BSHE) was around 0%. This molecule returned a growth (25 μM, monotherapy, FIG. 16) of 188.45%. The growth (50 μM, monotherapy, FIG. 16) is on record as 125.21%. Also, the viability (100 μM, monotherapy, FIG. 16) came out at 56.74.
For the molecule `Cc1c(C)c2c(c(C)c1O)CC[C@@](C)(CCC[C@H](C)CCC[C@H](C)CCCC(C)C)O2` [tocopherol, reference compound], the “cell viability compared to the IC50 value” was “significant reduction cell viability” and the “efficacy in combination with FSHE” value is given as “made the IC50 FSHE ineffective”. The “effect on cells as monotherapy” value (50 μM, monotherapy, FIG. 16) was “inducing cell proliferation”. Moreover, under “monotherapy in DMSO”, the “impact on cell viability alone in the carrier” value is “virtually no impact on cell viability”.
For the molecule `O=C1c2c(O)cc(O)cc2O[C@H](c2ccc(O)c(O)c2)[C@H]1O` [taxifolin], the “cell viability compared to the IC50 value” was “significant reduction cell viability”. In addition, the “effect on cells as monotherapy” value (50 μM, monotherapy, FIG. 16) was “inducing cell proliferation”.
Turning to `O=c1c(O)c(-c2ccccc2)oc2ccccc12` [3-hydroxyflavone], the “Flavonoids screening” value (10 μM, monotherapy) is recorded as 61.62; the “Flavonoids screening” value (20 μM, monotherapy) is 48.26; the “Flavonoids screening” value (30 μM, monotherapy) was 51.28; the “Flavonoids screening” value (40 μM, monotherapy) turned out to be 41.00; the “Flavonoids screening” value (50 μM, monotherapy) is 37.88; the “Flavonoids screening” value (60 μM, monotherapy) was determined as 35.89. For the same molecule, the “Flavonoids screening” value is, setting by setting: (80 μM, monotherapy) 34.31; (100 μM, monotherapy) 34.65.
As to `CC(=O)O[C@H]1C(=O)[C@@]2(C)[C@H]([C@H](OC(=O)c3ccccc3)[C@]3(O)C[C@H](OC(=O)[C@H](O)[C@@H](NC(=O)c4ccccc4)c4ccccc4)C(C)=C1C3(C)C)[C@]1(OC(C)=O)CO[C@@H]1C[C@@H]2O` [paclitaxel, reference compound], the “relative reduction in viability on increasing the dose by 5×” value (paclitaxel alone, 4 nm/ml to 20 nm/ml) is listed as “about 12%”.
As for `O=c1c(O)c(-c2ccc(O)c(O)c2)oc2cc(O)cc(O)c12` [Quercetin], the “Flavonoids screening” value by setting is: (10 μM, monotherapy) 95.16; (20 μM, monotherapy) 89.43; (30 μM, monotherapy) 85.33; (40 μM, monotherapy) 58.16; (50 μM, monotherapy) 34.67; (60 μM, monotherapy) 25.59. In addition, the “Flavonoids screening” value runs as follows: (80 μM, monotherapy) 7.88; (100 μM, monotherapy) 0.00.
`C=C1CC/C=C(\C)CC[C@@H]2[C@@H]1CC2(C)C` [β-caryophyllene, reference compound]: the “cell viability compared to the IC50 value” was “significant reduction cell viability”. For the setting “50 μM, monotherapy, FIG. 16”, the “effect on cells as monotherapy” value is recorded as “inducing cell proliferation”.
With `O=c1cc(-c2ccc(O)c(O)c2)oc2cc(O)cc(O)c12` [Luteolin], the “Flavonoids screening” value was 90.54 (10 μM, monotherapy); 56.75 (20 μM, monotherapy); 33.96 (30 μM, monotherapy); 1.39 (40 μM, monotherapy); 0.00 (50 μM, monotherapy); 0.00 (60 μM, monotherapy). The “Flavonoids screening” value (80 μM, monotherapy) came out at 0.00 and the “Flavonoids screening” value (100 μM, monotherapy) was determined as 0.00.
